Test results: US12653827B2, “Methods of treating indolent systemic mastocytosis” (Telios Pharma Inc., priority 2024, dated 2026)
“And” between values parts separate entries of the source, which are not always exact repeats. Identical values can stand only once.

Key:
[1] = Clinical study in ISM patients, total symptom score (ISM-TSAF, SISM-TSAF); assay type: in vivo, human; conditions: 100 mg or 150 mg BID
Description: Efficacy of Compound 128 will be evaluated among adult subjects diagnosed with ISM as defined by WHO diagnostic criteria. The subjects have moderate-to-severe symptoms based on minimum mean total symptom scores (TSS) of ISM-TSAF over the 14-day eligibility screening period for assessment of TSS of ISM-TSAF. Minimum baseline TSS of ISM-TSAF for eligibility is >28. Subjects will receive either 50, 75, 100 or 150 mg BID of Compound 128 plus best supportive care. Subject will be treated for twenty-four weeks and will be evaluated at twelve weeks and twenty-four weeks. Evaluation will be based on the 14-day rolling average TSS of ISM-TSAF or SISM-TSAF. The TSS of ISM-TSAF is based on patient reporting on eleven separate symptoms, measuring the severity of a broad range of mastocytosis-related symptoms over the prior 24 hours, based on a score from zero (no symptoms) to ten (worst possible symptoms experienced) scale for a TSS between 0-110. The eleven symptoms to be scored by the subject are fatigue, abdominal pain, diarrhea, skin spots, itching, flushing, brain fog, headache, dizziness and bone pain. The TSS of SISM-TSAF is based on patient reporting on nine separate symptoms based on a score from zero (no symptoms) to ten (worst possible symptoms experienced). The nine symptoms to be scored by the subject are muscle pain, runny nose, nasal congestion, wheezing, shortness of breath, throat itching, heart palpitations, difficulty concentrating, and diarrhea. The first eight items measure the severity of a broad range of mastocytosis-related symptoms over the prior 24 hours. Each of the first eight symptom is assessed on a 0 (None) to 10 (Worst Imaginable) scale for a TSS between 0-80. The 9th item measures incidence of diarrhea over the prior 24 hours. Endpoints will also be based on mean change in TSS of ISM-TSAF or SISM-TSAF based on 14-day average of patient-reported severity of ISM symptoms; mean change in serum tryptase level, KIT D816V VAF, change in best supportive care medications and change in number of anaphylactic episodes.
Five ISM patients have been treated with Compound 128 at 100 mg or 150 mg BID. At week 12, the TSS of ISM-TSAF is reduced by 28 points compared to the placebo group (FIG. 24), and the TSS of SISM-TSAF is reduced by 22.7 points, compared to the placebo (FIG. 25). In contrast, avapritinib 25 mg QD reduced the TSS of ISM-TSAF by 5.7 points at week 24 (FIG. 23). The average reduction of total symptom score of ISM-TSAF is 55% compared to the baseline while the average reduction of total symptom score of ISM-TSAF is 38% compared to the placebo group (FIG. 28).

mast cells = assay: Degranulation of mast cells grown from CD34+ blood cells of ISM patients (FIG. 22); assay type: cell-based; conditions: absence of SCF at the time of stimulation
BTK = BTK (Homo sapiens, UniProt Q06187); assay: pBTK test in ISM-like (+SCF) human mast cells; assay type: cell-based; design: endogenous in cells; host or cells: Primary human mast cells differentiated from bone marrow CD34+ cells of healthy donors, cultured with SCF; conditions: six healthy donors, treated two hours
Chain of BTK (Q06187 whole entry): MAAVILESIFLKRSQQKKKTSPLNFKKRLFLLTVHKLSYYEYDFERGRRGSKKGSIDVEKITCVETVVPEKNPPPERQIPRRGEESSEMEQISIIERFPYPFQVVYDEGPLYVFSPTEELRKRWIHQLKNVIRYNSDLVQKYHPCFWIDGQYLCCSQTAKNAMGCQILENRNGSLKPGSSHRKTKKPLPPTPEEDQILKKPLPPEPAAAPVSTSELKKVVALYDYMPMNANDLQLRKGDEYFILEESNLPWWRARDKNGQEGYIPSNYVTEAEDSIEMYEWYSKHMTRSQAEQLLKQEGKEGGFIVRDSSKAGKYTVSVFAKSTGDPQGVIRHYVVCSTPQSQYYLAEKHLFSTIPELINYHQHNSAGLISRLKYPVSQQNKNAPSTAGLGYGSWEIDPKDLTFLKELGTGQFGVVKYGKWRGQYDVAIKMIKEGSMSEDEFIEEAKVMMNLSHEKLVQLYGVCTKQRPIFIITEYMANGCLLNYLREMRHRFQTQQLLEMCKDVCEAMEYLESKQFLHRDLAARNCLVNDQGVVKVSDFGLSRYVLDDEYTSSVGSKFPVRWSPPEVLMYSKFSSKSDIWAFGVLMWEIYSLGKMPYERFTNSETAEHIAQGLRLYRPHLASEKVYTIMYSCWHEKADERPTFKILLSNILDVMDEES
Description: (§1) Human mast cells were derived from bone marrow CD34+ cells from six healthy donors for up to eight weeks by culturing CD34+ cells in StemSpan SFEM II (Stem Cell Technologies) supplemented with stem cell factor (SCF; 100 ng/mL; R&D System), IL-6 (R&D Systems), IL-3 (R&D Systems) and 1% penicillin/streptomycin (P/S; Gibco) for the first 10 days and in StemSpan SFEM II supplemented with SCF and IL-6 and 1% P/S for the remaining time in culture. […] Supernatant was collected and histamine levels were measured using a Histamine ELISA kit (Eagle Biosciences). […] Percent of activated mast cells was calculated as number of activated mast cells over the total number of mast cells.
(§2) Human mast cells were differentiated from bone marrow CD34+ cells from six healthy donors, cultured and sensitized as set forth in Example 4. […] The median fluorescence intensity of phosphorylated BTK was measured. CD63 and histamine levels in these cells were measured and percent activated mast cells were calculated as set forth in Example 4. The percent of stimulated control for pBTK, activated mast cells (CD63+) and histamine levels was calculated. […]

human mast cells = assay: Antigen-induced degranulation (CD63 and histamine) in ISM-like human mast cells; assay type: cell-based; conditions: six healthy donors, treated two hours
Description: as §1, §2

[2] = tested on: calcium influx in human mast cells; assay: Calcium flux assay in antigen-stimulated human mast cells; assay type: cell-based; conditions: treated 2 hours, NP-BSA stimulation
Description: as §1
Compound 128 Inhibits Calcium Signaling in Human Mast Cells. […] The median fluorescence intensity of cytosolic calcium was measured across the stimulation time period and graphed to represent the calcium influx profile. The area under the curve (AUC) of the calcium influx profile was calculated and normalized as a percent of stimulated control. […]

Question: With C=CC(=O)N1CCC(F)(CNc2ncnc(N)c2-c2ccc(Oc3ccccc3)cc2)CC1 [Compound 128, 1-(4-(((6-amino-5-(4-phenoxyphenyl)pyrimidin-4-yl)amino)methyl)-4-fluoropiperidin-1-yl)prop-2-en-1-one] as the compound, how does the “average reduction of total symptom score of ISM-TSAF compared to the placebo group” value [1] read?
Answer: 38%

Question: What about the “average reduction of total symptom score of ISM-TSAF compared to the baseline” value ([1]; 12-week treatment) of the same compound?
Answer: 55%

Question: What about the “reduction of TSS of ISM-TSAF compared to the placebo group” value ([1]; week 12) of the same compound?
Answer: 28.0 points and 28 points

Question: And the “reduction of TSS of SISM-TSAF compared to the placebo” value ([1]; week 12)?
Answer: 22.7 points

Question: What about the “degranulation of ISM patient-derived mast cells” value (mast cells) of the same compound?
Answer: inhibited

Question: What about the “inhibition of IgE-mediated BTK phosphorylation” value (BTK) of the same compound?
Answer: potently inhibits

Question: What about the “inhibition of IgE-mediated degranulation (CD63 and histamine)” value (human mast cells) of the same compound?
Answer: potently inhibits

Question: And the “mast cells undergoing calcium influx (AUC, percent of stimulated control)” value ([2]; ISM-like (+SCF) mast cells)?
Answer: less than 7%

Question: And the “mast cells undergoing calcium influx (AUC, percent of stimulated control)” value ([2]; healthy (−SCF) mast cells)?
Answer: < 3%
